Test results taken from patent US10919916B2, “Boron-containing small molecules” (Bill & Melinda Gates Foundation, priority 2016, dated 2021).
In brackets after ≈: the same amount, converted by molar mass. Read-outs that look alike come from different tables or passages of the source.

Experiments:
[1] = system: Staphylococcus aureus, MRSA (ATCC 33591); assay: Antibacterial MIC assay (microbroth dilution, CLSI); format: cell-based; conditions: read-out: MIC Staphylococcus aureus, MRSA (ATCC 33591)
How it was run: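 Compound 2-fold dilution series tested against 5×10^5 CFU/mL bacteria prepared from 0.5 McFarland saline suspensions of overnight colonies. Medium was cation-adjusted Mueller-Hinton broth, supplemented with 3% lysed horse blood for the fastidious pneumococcus. Protocol followed CLSI M07-A10 and M100-S25.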

[2] = system: Streptococcus pneumoniae (ATCC 49619); assay: as above; format: cell-based
How it was run: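 S. pneumoniae at 5×10^5 CFU/mL (from 0.5 McFarland saline suspension) was tested against 2-fold serial compound dilutions in cation-adjusted Mueller-Hinton broth plus 3% lysed horse blood, per CLSI M07-A10/M100-S25 microdilution guidelines.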

[3] = ATCC49619, read-out: MIC Streptococcus pneumoniae (ATCC 49619)

`C=C[C@]1(C)C[C@@H](OC(=O)COc2cc3c(cc2F)COB3O)[C@]2(C)[C@H](C)CC[C@]3(CCC(=O)[C@H]32)[C@@H](C)[C@@H]1O` [Compound 3, (3aR,4R,5R,7S,8S,9R,9aS,12R)-8-hydroxy-4,7,9,12-tetramethyl-3-oxo-7-vinyldecahydro-4,9a-propanocyclopenta[8]annulen-5-yl 2-((5-fluoro-1-hydroxy-1,3-dihydrobenzo[c][1,2]oxaborol-6-yl)oxy)acetate] showed an MIC [1] of under 0.25 µg/mL and an MIC [2, 3] of under 0.25 µg/mL.
With `C=C[C@]1(C)C[C@@H](OC(=O)COc2cc(CN)c3c(c2Cl)B(O)OC3)[C@]2(C)[C@H](C)CC[C@]3(CCC(=O)[C@H]32)[C@@H](C)[C@@H]1O` [Compound 8, (3aR,4R,5R,7S,8S,9R,9aS,12R)-8-hydroxy-4,7,9,12-tetramethyl-3-oxo-7-vinyldecahydro-4,9a-propanocyclopenta[8]annulen-5-yl 2-((4-(aminomethyl)-7-chloro-1-hydroxy-1,3-dihydrobenzo[c][1,2]oxaborol-6-yl)oxy)acetate] the MIC [1] was under 0.25 µg/mL and the MIC [2, 3] was 0.5 to 2 µg/mL (≈ 0.871 to 3.48 µM).
Compound `C=C[C@]1(C)C[C@@H](OC(=O)C[S@@+]([O-])c2ccc3c(c2F)B(O)OC3)[C@]2(C)[C@H](C)CC[C@]3(CCC(=O)[C@H]32)[C@@H](C)[C@@H]1O` [Compound 67, (3aR,4R,5R,7S,8S,9R,9aS,12R)-8-hydroxy-4,7,9,12-tetramethyl-3-oxo-7-vinyldecahydro-4,9a-propanocyclopenta[8]annulen-5-yl 2-((R)-(7-fluoro-1-hydroxy-1,3-dihydrobenzo[c][1,2]oxaborol-6-yl)sulfinyl)acetate] has an MIC [1] of under 0.25 µg/mL and an MIC [2, 3] of 0.5 to 2 µg/mL (≈ 0.892 to 3.57 µM).
`C=C[C@]1(C)C[C@@H](OC(=O)C[S@+]([O-])c2ccc3c(c2)B(O)OC3)[C@]2(C)[C@H](C)CC[C@]3(CCC(=O)[C@H]32)[C@@H](C)[C@@H]1O` [Compound 63, (3aR,4R,5R,7S,8S,9R,9aS,12R)-8-hydroxy-4,7,9,12-tetramethyl-3-oxo-7-vinyldecahydro-4,9a-propanocyclopenta[8]annulen-5-yl 2-((S)-(1-hydroxy-1,3-dihydrobenzo[c][1,2]oxaborol-6-yl)sulfinyl)acetate] was tested, and the MIC [1] was 0.5 to 2 µg/mL (≈ 0.922 to 3.69 µM) and the MIC [2, 3] was 4 to 32 µg/mL (≈ 7.37 to 59 µM).
In the case of `C=C[C@]1(C)C[C@@H](OC(=O)COc2ccc3c(c2)B(O)N(C(=O)OC)N=C3)[C@]2(C)[C@H](C)CC[C@]3(CCC(=O)[C@H]32)[C@@H](C)[C@@H]1O` [Compound 91, Methyl 1-hydroxy-7-(2-(((3aR,4R,5R,7S,8S,9R,9aS,12R)-8-hydroxy-4,7,9,12-tetramethyl-3-oxo-7-vinyldecahydro-4,9a-propanocyclopenta[8]annulen-5-yl)oxy)-2-oxoethoxy)benzo[d][1,2,3]diazaborinine-2(1H)-carboxylate], the MIC [1] is reported as under 0.25 µg/mL and the MIC [2, 3] is reported as 0.5 to 2 µg/mL (≈ 0.861 to 3.45 µM).
With `C=C[C@]1(C)C[C@@H](OC(=O)COc2cc(C)c3c(c2)B(O)OC3)[C@]2(C)[C@H](C)CC[C@]3(CCC(=O)[C@H]32)[C@@H](C)[C@@H]1O` [Compound 11, (3aR,4R,5R,7S,8S,9R,9aS,12R)-8-hydroxy-4,7,9,12-tetramethyl-3-oxo-7-vinyldecahydro-4,9a-propanocyclopenta[8]annulen-5-yl 2-((1-hydroxy-4-methyl-1,3-dihydrobenzo[c][1,2]oxaborol-6-yl)oxy)acetate] the MIC [1] was under 0.25 µg/mL and the MIC [2, 3] was under 0.25 µg/mL.
Compound `C=C[C@]1(C)C[C@@H](OC(=O)C[S@+]([O-])c2ccc3c(c2F)B(O)OC3)[C@]2(C)[C@H](C)CC[C@]3(CCC(=O)[C@H]32)[C@@H](C)[C@@H]1O` [Compound 66, (3aR,4R,5R,7S,8S,9R,9aS,12R)-8-hydroxy-4,7,9,12-tetramethyl-3-oxo-7-vinyldecahydro-4,9a-propanocyclopenta[8]annulen-5-yl 2-((S)-(7-fluoro-1-hydroxy-1,3-dihydrobenzo[c][1,2]oxaborol-6-yl)sulfinyl)acetate] has an MIC [1] of 0.5 to 2 µg/mL (≈ 0.892 to 3.57 µM) and an MIC [2, 3] of 4 to 32 µg/mL (≈ 7.14 to 57.1 µM).
`C=C[C@]1(C)C[C@@H](OC(=O)COc2ccc3c(c2)B(O)OC3C)[C@]2(C)[C@H](C)CC[C@]3(CCC(=O)[C@H]32)[C@@H](C)[C@@H]1O` (stereo partly drawn) [Compound 19, (3aR,4R,5R,7S,8S,9R,9aS,12R)-8-hydroxy-4,7,9,12-tetramethyl-3-oxo-7-vinyldecahydro-4,9a-propanocyclopenta[8]annulen-5-yl 2-((1-hydroxy-3-methyl-1,3-dihydrobenzo[c][1,2]oxaborol-6-yl)oxy)acetate] showed an MIC [1] of under 0.25 µg/mL and an MIC [2, 3] of 0.5 to 2 µg/mL (≈ 0.953 to 3.81 µM).
`C=C[C@]1(C)C[C@@H](OC(=O)COc2cc(F)c3c(c2)B(O)OC3)[C@]2(C)[C@H](C)CC[C@]3(CCC(=O)[C@H]32)[C@@H](C)[C@@H]1O` [Compound 4, (3aR,4R,5R,7S,8S,9R,9aS,12R)-8-hydroxy-4,7,9,12-tetramethyl-3-oxo-7-vinyldecahydro-4,9a-propanocyclopenta[8]annulen-5-yl 2-((4-fluoro-1-hydroxy-1,3-dihydrobenzo[c][1,2]oxaborol-6-yl)oxy)acetate] was tested, and the MIC [1] was under 0.25 µg/mL and the MIC [2, 3] was 0.5 to 2 µg/mL (≈ 0.946 to 3.78 µM).
`C=C[C@]1(C)C[C@@H](OC(=O)COc2ccc3c(c2)B(O)OCC3)[C@]2(C)[C@H](C)CC[C@]3(CCC(=O)[C@H]32)[C@@H](C)[C@@H]1O` [Compound 69, (3aR,4R,5R,7S,8S,9R,9aS,12R)-8-hydroxy-4,7,9,12-tetramethyl-3-oxo-7-vinyldecahydro-4,9a-propanocyclopenta[8]annulen-5-yl 2-((1-hydroxy-3,4-dihydro-1H-benzo[c][1,2]oxaborinin-7-yl)oxy)acetate] showed an MIC ([1]; microbroth dilution, cation-adjusted Mueller-Hinton broth, 35° C. for 16-20 hours) of under 0.25 µg/mL and an MIC ([2]; ATCC49619, microbroth dilution, 3% lysed horse blood, 35° C. for 16-20 hours, read-out: MIC Streptococcus pneumoniae (ATCC 49619)) of under 0.25 µg/mL.
`C=C[C@]1(C)C[C@@H](OC(=O)COc2c(F)cc3c(c2F)B(O)OC3)[C@]2(C)[C@H](C)CC[C@]3(CCC(=O)[C@H]32)[C@@H](C)[C@@H]1O` [Compound 5, (3aR,4R,5R,7S,8S,9R,9aS,12R)-8-hydroxy-4,7,9,12-tetramethyl-3-oxo-7-vinyldecahydro-4,9a-propanocyclopenta[8]annulen-5-yl 2-((5,7-difluoro-1-hydroxy-1,3-dihydrobenzo[c][1,2]oxaborol-6-yl)oxy)acetate] was tested, and the MIC [1] was under 0.25 µg/mL and the MIC [2, 3] was under 0.25 µg/mL.
For `C=C[C@]1(C)C[C@@H](OC(=O)CNc2cc(CN)c3c(c2)B(O)OC3)[C@]2(C)[C@H](C)CC[C@]3(CCC(=O)[C@H]32)[C@@H](C)[C@@H]1O` [Compound 50, (3aR,4R,5R,7S,8S,9R,9aS,12R)-8-hydroxy-4,7,9,12-tetramethyl-3-oxo-7-vinyldecahydro-4,9a-propanocyclopenta[8]annulen-5-yl (4-(aminomethyl)-1-hydroxy-1,3-dihydrobenzo[c][1,2]oxaborol-6-yl)glycinate], the MIC [1] was 0.5 to 2 µg/mL (≈ 0.929 to 3.71 µM) and the MIC [2, 3] was under 0.25 µg/mL.
With `C=C[C@]1(C)C[C@@H](OC(=O)COc2ccc3c(c2)B(O)OC3)[C@]2(C)[C@H](C)CC[C@]3(CCC(=O)[C@H]32)[C@@H](C)[C@@H]1O` [Compound 1, (3aR,4R,5R,7S,8S,9R,9aS,12R)-8-hydroxy-4,7,9,12-tetramethyl-3-oxo-7-vinyldecahydro-4,9a-propanocyclopenta[8]annulen-5-yl 2-((1-hydroxy-1,3-dihydrobenzo[c][1,2]oxaborol-6-yl)oxy)acetate] the MIC [1] was under 0.25 µg/mL and the MIC [2, 3] was under 0.25 µg/mL.
